Columns and labels:
[1] = molecular target: Full length human DNAPK protein (Homo sapiens, UniProt P78527); experiment: DNA-PK enzymatic assay (TR-FRET); type: biochemical; conditions: 10 μM ATP, 1.6 μM peptide substrate
[2] = Metabolic stability assay (human microsomal Clint); type: in vitro ADME; conditions: human, pooled human liver microsomes, pH 7.4, 1 μM compound, 1 mg/mL microsomes, 1 mM NADPH, 37° C.
Procedure: 1 μM compound was incubated with 1 mg/mL of microsomes (Pooled HLM with 20 mg/ml protein cone) at 37° C. in 250 μL of buffer (100 mM phosphate buffer, pH-7.4) containing 1 mM NADPH solution. 20 μL of incubation mix was quenched with 5 volumes chilled acetonitrile at different time points 0, 0.5, 5, 10, 15, 20 and 30 min in a fresh 96 well plate. The quench plate was centrifuged at 4000 rpm for 15 min. 40 μL of supernatant was diluted to 200 μL with pure water and analyzed using LC-MS/MS.
In vitro intrinsic clearance of the drugs in the microsome CLint (μl/min/mg) was calculated in the similar manner as the CLint in the hepatocyte.

MDR1, BCRP = experiment: MDCKII-MDR1-BCRP efflux assay; type: in vitro ADME; conditions: dog, pH 7.4, 5 μM compound, HBSS pH 7.4, read-out: MDCK-Mdr1-BCRP efflux ratio
Procedure: The apical-to-basolateral (A-B) and basolateral-to-apical (B-A) transport of compound in HBSS (25 mM HEPES, pH 7.4) was measured across MDCKII-MDR1-BCRP cell monolayers. Incubations were performed at approximately 37° C. for 120 min, with functionality of the test system being confirmed using 5 μM digoxin as a positive control substrate. Transport of 5 μM compound and control compound were determined by quantifying substrate concentration in the incubation medium of donor compartment at the beginning of the incubation period, and both donor and receiver compartments at the end of the incubation period. The data was used to calculate the apparent permeability (Papp). All incubations were performed in triplicate and integrity of the cell monolayers was confirmed using the marker Lucifer yellow.
The permeability coefficient Pexact (cm/s) was calculated using the equation: […]
The Pexact ratio was calculated using the equation: […]
The efflux ratio was calculated using the equation: […]
Where dCr/dt is the cumulative concentration of compound in the receiver chamber as a function of time (μM/s); Vr is the solution volume in the receiver chamber (0.1 mL on the apical side, 0.3 mL on the basolateral side); A is the surface area for the transport, i.e. 0.11 cm2 for the area of the monolayer; CO is the initial concentration in the donor chamber (μM).

Rat hepatocyte = experiment: Metabolic stability assay (rat hepatocyte Clint); type: in vitro ADME; conditions: 1 μM compound, cryopreserved hepatocytes 1 million cells per mL
Procedure: Viability of cryopreserved hepatocytes was determined using trypan blue and the cell conc. was adjusted to […] with buffer. 1 μM compound (in Acetonitrile; 0.01% DMSO) was incubated with 250 μL of hepatocytecells (1 million cells per mL) in a 96 deep well plate. Reaction was stopped at different time points (0, 0.5, 5, 15, 30, 45, 60, 80, 100 and 120 min) by addition of 3 volumes of chilled acetonitrile to 20 μL of reaction mixture and centrifuged at 4° C. for 15 min. 40 μL of supernatant was diluted to 200 μL with pure water and analyzed using LC-MS/MS.
In vitro hepatocyte clearance was estimated based on determination of elimination half-life (T1/2) of compounds disappearance from their initial concentrations. Peak area ratios of each compound (test or control) to IS was calculated. Drug elimination rate constant k (min−1), T1/2 (min), and in vitro intrinsic clearance CLint (μL/min/E6) was calculated according to the following equations: […]
Where Chep (cells×μL^−1) is the cell concentration in the incubation system.

Row | IC50 [1] [nM] | microsomal CLint at 1 μM [2] [µL/min/mg] | efflux ratio at 120 min, 5 μM (MDR1, BCRP) | Rat hepatocyte CLint (μl/min/10^−6 cells) (Rat hepatocyte) | Compound
1 | 0.7 | 115 | 0.9 | 21.2 | Cc1cc2ncnn2cc1Nc1ncc2c(C)nn(C3CCC(OC(F)F)CC3)c2n1 (stereo not drawn) [Example 23, 1-(4-(difluoromethoxy)cyclohexyl)-3-methyl-N-(7-methyl-[1,2,4]triazolo[1,5-a]pyridin-6-yl)-1H-pyrazolo[3,4-d]pyrimidin-6-amine]
2 | 35.2 | 69.6 | 0.8 | 14.6 | Cc1cc2ncnn2cc1Nc1ncc2c(C)cn(C3CCOCC3)c2n1 [Example 15, 7-methyl-N-(5-methyl-7-(tetrahydro-2H-pyran-4-yl)-7H-pyrrolo[2,3-d]pyrimidin-2-yl)-[1,2,4]triazolo[1,5-a]pyridin-6-amine]
3 | 2.6 | 153 | 1.1 | 31.7 | COc1ccc(Cn2nc(C)c3cnc(Nc4cn5ncnc5cc4C)nc32)cc1 [Example 18, 1-(4-methoxybenzyl)-3-methyl-N-(7-methyl-[1,2,4]triazolo[1,5-a]pyridin-6-yl)-1H-pyrazolo[3,4-d]pyrimidin-6-amine]
4 | 0.4 | 135 | 0.8 | 22.8 | Cc1cc2ncnn2cc1Nc1ncc2c(n1)c(C1CCCCC1)nn2C [Example 5, 3-cyclohexyl-1-methyl-N-(7-methyl-[1,2,4]triazolo[1,5-a]pyridin-6-yl)-1H-pyrazolo[4,3-d]pyrimidin-5-amine]
5 | 1.3 | 117 | 0.8 | 52.0 | Cc1cc2ncnn2cc1Nc1ncc2c(C)nn(C3CCCCC3)c2n1 [Example 20, 1-cyclohexyl-3-methyl-N-(7-methyl-[1,2,4]triazolo[1,5-a]pyridin-6-yl)-1H-pyrazolo[3,4-d]pyrimidin-6-amine]
6 | 5.2 | 54.7 | 1.5 | 7.2 | Cc1cc2ncnn2cc1Nc1ncc2c(C(F)(F)F)nn(C3CCOCC3)c2n1 [Example 17, N-(7-methyl-[1,2,4]triazolo[1,5-a]pyridin-6-yl)-1-(tetrahydro-2H-pyran-4-yl)-3-(trifluoromethyl)-1H-pyrazolo[3,4-d]pyrimidin-6-amine]
7 | 0.7 | 135 | 1.3 | 11.3 | Cc1cc2ncnn2cc1Nc1ncc2c(n1)c(C1CCC(F)(F)CC1)nn2C [Example 9, 3-(4,4-difluorocyclohexyl)-1-methyl-N-(7-methyl-[1,2,4]triazolo[1,5-a]pyridin-6-yl)-1H-pyrazolo[4,3-d]pyrimidin-5-amine]
8 | 1.8 | 6.6 | 31.2 | 12.4 | Cc1cc2ncnn2cc1Nc1ncc2c(C)nn([C@H]3CC[C@H](O)CC3)c2n1 [Example 31, (1r,4r)-4-(3-methyl-6-((7-methyl-[1,2,4]triazolo[1,5-a]pyridin-6-yl)amino)-1H-pyrazolo[3,4-d]pyrimidin-1-yl)cyclohexan-1-ol]
9 | 1.8 | 11.1 | 3.6 | <1 | Cc1cc2ncnn2cc1Nc1ncc2c(C)nn(C3CCOC3)c2n1 (single isomer, unassigned) [Example 48, 3-methyl-N-(7-methyl-[1,2,4]triazolo[1,5-a]pyridin-6-yl)-1-(tetrahydrofuran-3-yl)-1H-pyrazolo[3,4-d]pyrimidin-6-amine]
10 | 1.8 | 209 | 1.3 | 17.7 | CO[C@H]1CC[C@@H](n2nc(C)c3cnc(Nc4cn5ncnc5cc4C)nc32)CC1 [Example 25, 1-((1s,4s)-4-methoxycyclohexyl)-3-methyl-N-(7-methyl-[1,2,4]triazolo[1,5-a]pyridin-6-yl)-1H-pyrazolo[3,4-d]pyrimidin-6-amine]
11 | 4.2 | 125 | 0.9 | 144.4 | Cc1cc2ncnn2cc1Nc1ncc2c(C)nn([C@H]3C[C@@H](C)C3)c2n1 [Example 40, 3-methyl-N-(7-methyl-[1,2,4]triazolo[1,5-a]pyridin-6-yl)-1-((1s,3s)-3-methylcyclobutyl)-1H-pyrazolo[3,4-d]pyrimidin-6-amine]
12 | 11.1 | 34.2 | 1.4 | 15.3 | Cc1cc2ncnn2cc1Nc1ncc2c(C)nn(CC3CC3)c2n1 [Example 38, 1-(cyclopropylmethyl)-3-methyl-N-(7-methyl-[1,2,4]triazolo[1,5-a]pyridin-6-yl)-1H-pyrazolo[3,4-d]pyrimidin-6-amine]
13 | 6.2 | 10.1 | 0.8 | 9.6 | COc1cc(C)c(Nc2ncc3c(C)nn(C4CCOCC4)c3n2)cn1 [Example 89, N-(6-methoxy-4-methylpyridin-3-yl)-3-methyl-1-(tetrahydro-2H-pyran-4-yl)-1H-pyrazolo[3,4-d]pyrimidin-6-amine]
14 | 10.2 | 39.7 | 3.1 | 9.8 | Cc1cc2ncnn2cc1Nc1ncc2c(n1)c(C1CCOCC1)cn2C [Example 3, 7-methyl-N-(5-methyl-7-(tetrahydro-2H-pyran-4-yl)-5H-pyrrolo[3,2-d]pyrimidin-2-yl)-[1,2,4]triazolo[1,5-a]pyridin-6-amine]
15 | 0.9 | 200 | 0.6 | 71.1 | Cc1cc2ncnn2cc1Nc1ncc2c(C)nn(C3CCC4(CC3)CC4)c2n1 [Example 37, 3-methyl-N-(7-methyl-[1,2,4]triazolo[1,5-a]pyridin-6-yl)-1-(spiro[2.5]octan-6-yl)-1H-pyrazolo[3,4-d]pyrimidin-6-amine]
16 | 12.2 | 20.9 | 1.6 | 4.2 | Cc1cc2ncnn2cc1Nc1ncc2c(C)nn(CC(F)F)c2n1 [Example 57, 1-(2,2-difluoroethyl)-3-methyl-N-(7-methyl-[1,2,4]triazolo[1,5-a]pyridin-6-yl)-1H-pyrazolo[3,4-d]pyrimidin-6-amine]
17 | 1.9 | 89 | 2 | 17.2 | COC1CCC(n2nc(C)c3cnc(Nc4cn5ncnc5cc4C)nc32)C1 (single isomer, unassigned) [Example 108, 1-(3-methoxycyclopentyl)-3-methyl-N-(7-methyl-[1,2,4]triazolo[1,5-a]pyridin-6-yl)-1H-pyrazolo[3,4-d]pyrimidin-6-amine]
18 | 7 | 12.2 | 2.7 | 2.1 | Cc1cc2ncnn2cc1Nc1ncc2c(C)nn(CC3CCCO3)c2n1 (single isomer, unassigned) [Example 50, 3-methyl-N-(7-methyl-[1,2,4]triazolo[1,5-a]pyridin-6-yl)-1-((tetrahydrofuran-2-yl)methyl)-1H-pyrazolo[3,4-d]pyrimidin-6-amine]

From patent US12630565B2, “DNA-dependent protein kinase inhibitor” (DIZAL (JIANGSU) PHARMACEUTICAL CO., LTD., priority 2019, dated 2026)
